Entries after “also recorded” stand apart in the source; their conditions may differ.
Columns and labels:
[1] = test system: IL-1 pathway; test: 4A1 Sentinel line IL-1-stimulated luciferase reporter assay; assay type: cell-based; settings: Homo sapiens; 4A1 cells
Procedure: Reporter activities of Sentinel® clones were measured using the Steady-Glo® Luciferase assay system (Promega, Madison, Wis.), according to the manufacturer's instructions, and were normalized to cell numbers based on nucleic acid quantification (CyQuant® cell proliferations assay, Molecular Probes/Invitrogen, Carlsbad, Calif.). In order to identify potential anti-inflammatory compounds, the OSM-responding Sentinel® clone 4A1 was used for a library screen of approximately 1800 compounds.
Sentinel lines were developed by utilizing promoter trapping technology in combination with positive and negative selections to efficiently deliver reporter genes into endogenously regulated genetic sites. Using this approach, a Sentinel cell line, 4A1, in A549 lung carcinoma cells that responded specifically to OSM and IL-1 stimulation among a panel of cytokines and active compounds was established (FIG. 9A).
To identify compounds that inhibit OSM signaling, the collection of approximately 1800 compounds was screened using the 4A1 Sentinel line.

[2] = test system: MMP-2; test: MMP-2 production in SW1353 cells (ELISA, control); assay type: cell-based, human
Procedure: MMP-2 production can be used as control for the potential side-effects of compounds. This is because MMP-2 levels are not believed to change in response to IL-1/OSM.
The same supernatants of culture media used in the primary screen were assayed for IL-1/OSM-stimulated pro-MMP-13 production and MMP-2 production by enzyme-linked immunosorbent assay (ELISA).
For matrix metalloproteinase (MMP) measures, SW1353 cells were grown to confluence in 24 well plates, washed in DMEM (with Ham's F12) and placed in 500 ul of serum free DMEM/F-12 with 0.2% lactalbumin hydrosylate with and without OsM/IL-1. After 24 hrs, supernatants were collected and the amounts of proMMP13, totalMMP2, and proMMP1 were measured using Quantikine® ELISA kit for human MMPs (R & D systems, Minneapolis, Minn.). All MMP measures were normalized to viable cell numbers based on a tetrazolium (MTS) colorimetric measure (Promega, Madison, Wis.).
(§1) Multiple control assays were performed to investigate the selectivity of CA4 action. Matrix metalloproteinase-2 (MMP-2) production in SW1353 cells was tested. Mutation of MMP-2 causes a multicentric osteolysis and arthritis syndrome (Martignetti et al., Nat Genet 28, 261-265 (2001) the entire contents of which are incorporated herein by reference), and theoretically its expression should not be affected in treating RA. CA4 at approximately 110 nM had no effect on production of MMP-2 (FIG. 12E). An A549 Sentinel line that responded to TGF-β was then tested.

[3] = test system: MMP-13; test: OSM-stimulated pro-MMP-13 production in dedifferentiated primary chondrocytes; assay type: cell-based; settings: FIG. 12D, listed as CA4
[4] = test system: TGF-β; test: A549 Sentinel line TGF-β-stimulated reporter activity; assay type: cell-based, human; settings: as high as 1 μM; data not shown
Procedure: as §1

[5] = test system: JAK/STAT pathway (STAT 1, 3, 5); test: STAT phosphorylation (FACS) and nuclear translocation (immunostaining) in SW1353 cells; assay type: cell-based, human; settings: 20 nM, OSM/IL-1 activation
Procedure: SW1353 cells were seeded and treated as described above. For the flow cytometric analysis of intracellular phopho-proteins, trypsinized SW1353 cells were fixed in 1.5% formaldehyde at room temperature (RT), and permeabilized in ice cold methanol for minimum of 10 minutes. After 2× wash in wash buffer (D-PBS, with 1% FBS), cells were stained with phospho-specific antibodies (5 ug/ml final) for 20 minutes, washed 2× in wash buffer, followed by 20 minutes incubation with phycoerythrin-conjugated anti-mouse IgG (10 ug/ml final). Following 2× wash in wash buffer, cells were analyzed by flow cytometry.
For immunohistochemistry of intracellular phospho-proteins, fixation and permeabilization conditions were identical to the ones used for flow cytometric analysis. For the visualization of the phosphor-specific proteins, ImmPRESS Universal Antibody kit (Vector Laboratories, Burlingame, Calif.) was used.
The cellular and molecular mechanisms by which CA4 repressed pro-MMP-13 production, using SW1353 as the model system were investigated. […] The pathways that mediate OSM and IL-1 signal transduction were then examined. Using inhibitors that target key components of the pathways, it was shown that JAK/STAT, p38, JNK, and NF-κB pathways were important for OSM/IL-1-stimulated pro-MMP-13 production (FIG. 13B-E), but not ERK or Cox1/2 pathways (data not shown). […]

[6] = test system: murine collagen-induced arthritis (CIA) model; test: Murine collagen-induced arthritis (CIA) model; assay type: in vivo
Procedure: Male 6-8 week old B10RIII (Jackson Labs) mice were immunized at day 0, followed by a booster immunization on day 15.
Clinical scores started on day 16 and continued daily. Mice were sacrificed on day 26. Clinical scores of mouse paws were based on a 0-5 scoring system with 0 being normal and 5 being the most severe edema and erythema conditions. ELISAs on collected plasma samples were performed using commercial kits: IL-1β (R & D systems, Minneapolis, Minn.), anti-collagen II (Chondrex, Redmont, Wash.), and Rheumatoid Factors (IgG) (Alpha Diagnostic International, San Antonio, Tex.).
CA4 at 50, 33, and 0 (vehicle) mg/ml in osmotic pumps (0.5 ul/hr; equivalent to 25, 16 and 0 mg/kg/day) was administered subcutaneously to murine collagen-induced arthritis model usin ghte B10RIII strain 12 days after the 1st immunization (day 0) of type II collagen. […] Dexamethasone at 0.2 mg/kg was injected daily subcutaneously as a positive control.

[7] = Kirwan et al. 2004; cited from earlier work

## COc1ccc(/C=C\c2cc(OC)c(OC)c(OC)c2)cc1O [Combretastatin A4 (1), (Z)-5-(3,4,5-trimethoxystyryl)-2-methoxyphenol]
[1]
  IC50: 6.9 ± 0.4 nM
[2]; SW1353, CA4 at approximately 110 nM, FIG. 12E, listed as CA4
  effect on production of MMP-2: no effect; also recorded: failed to inhibit MMP-2 production
[2]; SW-1353, FIG. 5, listed as 1
  inhibitory effect on MMP-13 expression compared to MMP-2 expression: greater inhibitory effects on MMP-13 expression compared to MMP-2 expression; also recorded: preferentially inhibit MMP-13 expression compared to MMP-2 expression
[3]
  OSM-stimulated pro-MMP-13 production: inhibited OSM-stimulated pro-MMP-13 production dose-dependently
[4]
  effect on TGF-β-stimulated reporter activity: no effect
[5]; FACS
  STAT 1, 3, 5 phosphorylation: did not affect
[5]; immunostaining
  STAT nuclear translocation: did not affect
[6]; 16 mg/kg/day by osmotic pumps
  knee joint histopathology: intermediate joint histopathological damages
[6]; 16 mg/kg/day group, by day 22
  survival: All of the mice in the 16 mg/kg/day group survived
[6]; 25 mg/kg/day by osmotic pumps
  knee joint histopathology: only minimal synovitis, minimal proteoglycan and cartilage loss, few infiltrated inflammatory cells, and no panus formation or bone resorption
[6]; 25 mg/kg/day group, by day 22
  mice died: Eight of 15
[6]; 25 and 16 mg/kg/day s.c. osmotic pumps vs vehicle, day 15-22, listed as CA4
  arthritis incidence rate: dose-dependently reduced the arthritis incidence rate
[6]; 25 and 16 mg/kg/day s.c. osmotic pumps, listed as CA4
  macroscopic arthritis clinical scores of the paws: reduced the symptomatic macroscopic scores of the paws; also recorded: significantly reduced macroscopic arthritis clinical scores
[6]; CA4 treatment by osmotic pumps, FIG. 15C
  body weight: without dramatically affecting body weight
[6]; both CA4-treated groups (25, 16 mg/kg/day), ELISA
  reduction of plasma IL-1β levels: more than 50%
[6]; both doses of CA4 (25, 16 mg/kg/day), plasma ELISA
  titers of Rheumatoid Factors: improved significantly to lower levels
[6]; higher dose of CA4 (25 mg/kg/day), plasma ELISA
  anti-type II collagen antibody titer: significantly, albeit modestly, reduced
[7]
  half time in mouse plasma: approximately 0.5 hour

Reference: patent US20060276440A1, “Treatment of inflammatory disorders” (priority 2005, published 2006)
